Laboratory results published in patent US10167299B2, “1-(3-aminopropyl) substituted cyclic amine compounds, preparation method therefor, and pharmaceutical compositions and uses thereof” (SHANGHAI INSTITUTE OF MATERIA MEDICA, CHINESE ACADEMY OF …, priority 2013, dated 2019).
Values after ≈ are worked out from the molar mass of the structure shown. Like-named read-outs stand apart in the source and are kept apart here.

Experiments:
HIV-1KM018 virus strain = experiment: Inhibition of viral replication in PBMC infected with HIV-1KM018; format: cell-based
Method: (§1) The virus was titrated according to the modified method of Johnson & Byington. Briefly, the HIV-1 stock solution was subject to four-fold dilution in a 96-well plate (ten gradients) sextuplicate for each gradient, while setting six control-wells. Into each well was added 100 μl (5×10^6/ml) PHA-stimulated PBMC cells and final volume per well was 200 μl. The cells were cultured at 37° C. with 5% CO2. […] On the seventh day, the infected supernatant was collected and lysed with 0.5% Triton X100. The p24 antigen was detected by ELISA and TCID50 of virus was calculated according to Reed & Muench method (50% Tissue culture infection dose).
(§2) The starting concentration was 1 μM, six dilutions were obtained, and each well contained 200 μl mixture. While wells not containing drugs were set as control. […] After homogeneously mixed, the mixture was immediately added to 48-well plate containing diluted drug and each well was added with 200 μl of mixture. MVC was used as positive control. The cells were cultured at 37° C. with 5% CO2 for seven days (drug with the same concentration was added on the third day). The supernatant was collected, lysed and inactivated with 0.5% Triton X-100. The inhibition effect of drug on HIV-1 replication was detected using p24 antigen capture ELISA method.

HIV-1Ba-L virus strain [1] = experiment: Inhibition of viral replication in PBMC infected with HIV-1Ba-L; format: cell-based
Method: The virus was titrated according to the modified method of Johnson & Byington. Briefly, the HIV-1 stock solution was subject to four-fold dilution in a 96-well plate (ten gradients) sextuplicate for each gradient, while setting six control-wells. Into each well was added 100 μl (5×10^6/ml) PHA-stimulated PBMC cells and final volume per well was 200 μl. The cells were cultured at 37° C. with 5% CO2. On the third day, 100 μl of fresh RPMI-1640 complete medium was supplemented. On the seventh day, the infected supernatant was collected and lysed with 0.5% Triton X100. The p24 antigen was detected by ELISA and TCID50 of virus was calculated according to Reed & Muench method (50% Tissue culture infection dose).
The compound to be tested was subject to 5-fold dilution in 48-well plate with RPMI-1640 complete medium (containing 10% FBS). The starting concentration was 1 μM, six dilutions were obtained, and each well contained 200 μl mixture. While wells not containing drugs were set as control. Virus (MOI=0.01) was added to 5×10^6/ml of PBMC cells which have been stimulated by PHA for 72 h. After homogeneously mixed, the mixture was immediately added to 48-well plate containing diluted drug and each well was added with 200 μl of mixture. MVC was used as positive control. The cells were cultured at 37° C. with 5% CO2 for seven days (drug with the same concentration was added on the third day). The supernatant was collected, lysed and inactivated with 0.5% Triton X-100. The inhibition effect of drug on HIV-1 replication was detected using p24 antigen capture ELISA method.

HIV-1SF162 virus strain [2] = experiment: Inhibition of viral replication in HOS-CD4-CCR5 cells infected with HIV-1SF162; format: cell-based
Method: (§3) On the day before the test, 1×10^5/ml of HOS-CD4-CCR5 cells were inoculated in 96-well plates with 100 μl for each well. The compound to be tested was subject to 5-fold dilution in 96-well microtiter plate with DMEM complete medium (containing 10% FBS). The starting concentration was 1 μM and six dilutions were obtained. Triplicate wells were set for each dilution and each well contained 100 μl mixture. While wells not containing drugs were set as control. The supernatant was removed and 100 μl of drug was added and incubated for 2 h. Then 100 μl of HIV-1SF162 and HIV-1Ba-L were added to dilute supernatant. The cells were infected for 1 h, free virus was washed out and drug with the same final concentration was added. MVC was used as positive control. The cells were cultured at 37° C. with 5% CO2 for three days. The supernatant was collected, lysed and inactivated with 0.5% Triton X-100. The inhibition effect of drug on HIV-1 replication was detected using p24 antigen capture ELISA method.

in vivo = conditions: male, rat
HIV-1SF162 virus strain [3] = experiment: Inhibition of viral replication in PBMC infected with HIV-1SF162; format: cell-based
Method: as §1, §2

HIV-1Ba-L virus strain [4] = experiment: Inhibition of viral replication in HOS-CD4-CCR5 cells infected with HIV-1Ba-L; format: cell-based
Method: as §3

[5] = Toxicity test of compounds on HOS-CD4-CCR5 cells (MTT); format: cell-based; conditions: human; HOS-CD4+-CCR5 cells (Table 7)
Method: (§4) The compound to be tested was subject to 5-fold dilution in a 96-well microtiter plate with RPMI-1640 or DMEM complete medium (containing 10% FBS) (Six dilution) triplicate for each dilution and 100 μl for each well. While wells not containing drugs were set as control. Into each well was added 100 μl of 4×10^5/ml PM1, HOS-CD4-CCR5 cells or 100 μl of 5×10^6/ml PHA stimulated PBMC. The cells were cultured at 37° C. with 5% CO2 for three days (PBMC cells were cultured for seven days and 100 μl of fresh RPMI-1640 complete medium was supplemented on the third day). Cytotoxicity was tested with MTT assay. OD values were measured by ELx800 microplate reader. The detection wavelength was 570 nm, and the reference wavelength was 630 nm.

[6] = Cytotoxicity (CC50) in TZM-bl cells; format: cell-based; conditions: human; TZM-bl cells (Table 3); read-out: CC50
[7] = Toxicity test of compounds on PBMC cells (MTT); format: cell-based; conditions: human, PBMC cells (Table 4)
Method: as §4

CYP2D6 = CYP2D6 (Homo sapiens (Human), UniProt P10635); experiment: CYP450 inhibition activity assay (Vivid kit) CYP2D6; format: in vitro ADME; conditions: CYP450 subtype (μM) 2D6 (IC50)
Method: VividR CYP450 Screening Kits can be used to evaluate the effects on CYP450 subtypes (CYP1A2, CYP2D6, CYP2C9, CYP2C19, CYP3A4-T and CYP3A4-M) and the substrate VividR in the kit can be metabolizd to a product which can emit strong fluorescence in an aqueous solution by specific CYP450 enzymes.
The compounds to be tested and positive compound were added to corresponding wells and DMSO was added to control wells.
CYP450 enzyme was added to the compounds to be tested, positive compound and DMSO control wells. The enzyme dilution was used to replace enzyme and added to DMSO wells as test background. The mixture was vibrated and mixed for 1 minute, and then incubated at room temperature for 20 minutes.
NADP^+ regeneration system and the substrate were added to initiate the reaction and incubated at room temperature for 60 minutes.

HIV-1SF162 virus strain [8] = experiment: Inhibition activity on TZM-bl cells infected with HIV-1SF162; conditions: for EC50: Human immunodeficiency virus 1, TZM-bl; for therapeutic index (TI): TZM-bl cells infected with HIV-1SF162; for cytotoxicity in vitro and therapeutic index in words, versus positive control compound: TZM-bl cells infected with HIV-1SF162, conclusion from Table 3
[9] = Human immunodeficiency virus 1, PBMC
[10] = Human immunodeficiency virus 1, HOS-CD4-CCR5

Chain of CYP2D6 (P10635 whole entry): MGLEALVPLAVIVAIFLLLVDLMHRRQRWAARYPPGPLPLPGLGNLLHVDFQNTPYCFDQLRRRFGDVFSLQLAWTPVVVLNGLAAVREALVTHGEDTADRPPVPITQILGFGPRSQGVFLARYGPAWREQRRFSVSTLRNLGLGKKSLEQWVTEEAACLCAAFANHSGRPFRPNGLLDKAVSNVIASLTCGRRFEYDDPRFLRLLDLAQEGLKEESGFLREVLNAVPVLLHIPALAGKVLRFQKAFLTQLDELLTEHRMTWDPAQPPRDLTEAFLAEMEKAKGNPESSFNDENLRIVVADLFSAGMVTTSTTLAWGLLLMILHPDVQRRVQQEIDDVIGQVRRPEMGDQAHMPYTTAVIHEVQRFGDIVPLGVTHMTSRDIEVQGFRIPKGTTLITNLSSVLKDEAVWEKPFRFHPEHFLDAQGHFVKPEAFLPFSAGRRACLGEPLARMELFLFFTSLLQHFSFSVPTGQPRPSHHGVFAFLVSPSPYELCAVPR

Row | Structure (SMILES) | bioavailability (in vivo) [%] | AUC(0-t) (in vivo; 10 mg/kg) [ng·h/mL] | AUC(0-inf) (in vivo; iv, 10 mg/kg) [ng·h/mL] | AUC(0-t) (in vivo; iv, 10 mg/kg) [ng·h/mL] | Cmax (in vivo; iv, 10 mg/kg) [ng/mL] | MRT (in vivo; iv, 10 mg/kg) [h] | Tmax (in vivo; iv, 10 mg/kg) [h] | half-life (in vivo; iv, 10 mg/kg) [h] | AUC(0-inf) (in vivo; po, 20 mg/kg) [ng·h/mL] | AUC(0-t) (in vivo; po, 20 mg/kg) [ng·h/mL] | Cmax (in vivo; po, 20 mg/kg) [ng/mL] | MRT (in vivo; po, 20 mg/kg) [h] | Tmax (in vivo; po, 20 mg/kg) [h] | bioavailability (in vivo; po, 20 mg/kg) [%] | half-life (in vivo; po, 20 mg/kg) [h] | CC50 at 3 days [5] [µg/mL] | CC50 [6] [µg/mL] | EC50 (HIV-1SF162 virus strain [8]) [µg/mL] | therapeutic index (TI) (HIV-1SF162 virus strain [8]) | cytotoxicity in vitro and therapeutic index in words, versus positive control compound (HIV-1SF162 virus strain [8]) | also measured
1 | Cc1nnc(C(C)C)n1C1CC2CCC(C1)N2CC[C@H](NC(=O)C1CCC(F)(F)CC1)c1ccsc1 (stereo partly drawn) [Compound 22, 4,4-difluoro-N-[(1S)-3-[exo-3-(3-isopropyl-5-methyl-4H-1,2,4-triazol-4-yl)-8-azabicyclo[3.2.1]octane-8-yl]-1-(thiophen-3-yl)propyl]cyclohexane-1-carboxamide] | 14.5 | 4150 | 4160 | 4150 | 3780 | 0.84 | 0.25 | 1 | 1260 | 1210 | 306 | 2.55 | 2 | 14.5 | 1.55 | > 800 | > 200 | 0.00153 (≈ 0.00294 µM) | >130718.95 | better than positive control compound | EC50 (HIV-1KM018 virus strain; [9]): 0.00533 µg/mL (≈ 0.0103 µM); EC50 (HIV-1Ba-L virus strain [1]; [9]): 0.00513 µg/mL (≈ 0.00987 µM); EC50 (HIV-1SF162 virus strain [2]; [10]): 0.00915 µg/mL (≈ 0.0176 µM); EC50 (HIV-1SF162 virus strain [3]; [9]): 0.00265 µg/mL (≈ 0.0051 µM); EC50 (HIV-1Ba-L virus strain [4]; [10]): 0.00483 µg/mL (≈ 0.00929 µM); CC50 at 7 days [7]: 635 µg/mL (≈ 1220 µM); IC50 (CYP2D6): > 25 µM
2 | Cc1nnc(C(C)C)n1C1CC2CCC(C1)N2CC[C@H](NC(=O)C1CCCC1)c1cccs1 (stereo partly drawn) [Compound 18, N-[(1S)-3-[exo-3-(3-isopropyl-5-methyl-4H-1,2,4-triazol-4-yl)-8-azabicyclo[3.2.1]octane-8-yl]-1-(thiophen-2-yl)propyl]cyclopentane-1-carboxamide] | 90.5 | 1550 | 1600 | 1550 | 771 | 1.98 | 0.25 | 1.81 | 3070 | 2800 | 690 | 2.94 | 2 | 90.5 | 2.05 | 507 (≈ 1080 µM) | > 200 | 0.00123 (≈ 0.00262 µM) | >162601.63 | better than positive control compound | EC50 (HIV-1KM018 virus strain; [9]): 0.0699 µg/mL (≈ 0.149 µM); therapeutic index (TI) (HIV-1KM018 virus strain; PBMC cells infected with HIV-1KM018): 4935.2; EC50 (HIV-1Ba-L virus strain [1]; [9]): 0.289 µg/mL (≈ 0.616 µM); therapeutic index (TI) (HIV-1Ba-L virus strain [1]; PBMC cells infected with HIV-1Ba-L): 2266.5; EC50 (HIV-1SF162 virus strain [2]; [10]): 0.0203 µg/mL (≈ 0.0432 µM); EC50 (HIV-1SF162 virus strain [3]; [9]): 0.0927 µg/mL (≈ 0.197 µM); therapeutic index (TI) (HIV-1SF162 virus strain [3]; PBMC cells infected with HIV-1SF162): 3721; EC50 (HIV-1Ba-L virus strain [4]; [10]): 0.0034 µg/mL (≈ 0.00724 µM); CC50 at 7 days [7]: 345 µg/mL (≈ 735 µM); IC50 (CYP2D6): 16.8 µM
3 | Cc1nnc(C(C)C)n1C1CC2CCC(C1)N2CC[C@H](NC(=O)C1CCC(F)(F)CC1)c1cccs1 (stereo partly drawn) [Compound 14, 4,4-difluoro-N-[(1S)-3-[exo-3-(3-isopropyl-5-methyl-4H-1,2,4-triazol-4-yl)-8-azabicyclo[3.2.1]octane-8-yl]-1-(thiophen-2-yl)propyl]cyclohexane-1-carboxamide] | 7.85 | 7050 | 7060 | 7050 | 6840 | 0.71 | 0.25 | 0.77 | 1190 | 1110 | 266 | 3.33 | 4 | 7.85 | 2.12 | 370 (≈ 711 µM) | > 200 | 0.00359 (≈ 0.00691 µM) | >55710.31 | better than positive control compound | EC50 (HIV-1KM018 virus strain; Human immunodeficiency virus 1, PBMC cells infected with HIV-1KM018, read-out: EC50): 0.00377 µg/mL (≈ 0.00725 µM); EC50 (HIV-1Ba-L virus strain [1]; Human immunodeficiency virus 1, PBMC cells infected with HIV-1Ba-L, read-out: EC50): 0.0197 µg/mL (≈ 0.0379 µM); EC50 (HIV-1SF162 virus strain [2]; Human immunodeficiency virus 1, HOS-CD4+-CCR5 cells infected with HIV-1SF162, read-out: EC50): 0.0131 µg/mL (≈ 0.0251 µM); EC50 (HIV-1SF162 virus strain [3]; Human immunodeficiency virus 1, PBMC cells infected with HIV-1SF162, read-out: EC50): 0.00158 µg/mL (≈ 0.00304 µM); EC50 (HIV-1Ba-L virus strain [4]; Human immunodeficiency virus 1, HOS-CD4+-CCR5 cells infected with HIV-1Ba-L, read-out: EC50): 0.00074 µg/mL (≈ 0.00142 µM); CC50 at 7 days ([7]; PHA stimulated PBMC): 268 µg/mL (≈ 515 µM)
